For the experiment, the system named is M. furfur ATCC 14521. Description: Antifungal activity (log reduction) on M. furfur. It counts as cell-based. The settings on record: contact time 24 hr, 10 mg sample in 1000 μL inoculum, 10^5 cells/ml, 32° C. The protocol: The above samples were subjected to their anti fungal efficacy on M. furfur as described hereinafter.
M. furfur ATCC 14521 strain was revived from glycerol stock on Modified Dixon agar. Plate was at 30° C. for 72 hrs. Approximately 72 hrs prior to testing, the plate culture was inoculated onto the surface of another sterile Modified Dixon agar plate and incubated at 30° C. for approximately 72 hrs. From second subculture, the optical density of culture is adjusted at 620 nm to give cell strength of 10^7 cfu/ml. The culture was further diluted for 100 times to achieve 10^5 cfu/ml in Pityrosporum broth.
1000 μL of M. furfur inocula were added to the above tubes and a blank sterile 1.5 ml Eppendorf tube (no particles as control), respectively so that the load in each tube is 10^5 cells/ml.
All the samples were kept shaken @120 RPM in a shaker incubator at 32° C. After 24 hours incubation, 10 μL of the samples were withdrawn from the respective 1.5 ml Eppendorf tubes and diluted with 990 μL of Pityrosporum broth. This represents 10^−2 dilution. Serial dilution was performed from the above 24 hours inocula and plated 100 μL of dilution onto modified Dixon plate. Plate dilution 10^−2, 10^−3, 10^−4 and 10^−5. All the plates were kept for incubation at 32° C. for 24-72 hrs. Plate count for all the plates were done.

The substance zinc pyrithione [Example B] returned a Log reduction of 1.58.

The record behind these values is patent US20200397673A1, “AN ANTIMICROBIAL COMPOSITION” (Conopco, Inc., d/b/a UNILEVER, priority 2017, published 2020).
